Data published in US11498896B2 (The Broad Institute, Inc., priority 2014, dated 2022).

How the values were obtained:
human D2R/β-arrestin [1] = molecular target: T1, human D2R/β-arrestin (Homo sapiens (Human), UniProt P14416); assay: β-arrestin agonist assay (PathHunter); assay type: cell-based; details: CHO-K1 cells expressing human D2R/β-arrestin; agonist mode
Protocol: The detection reagent (9.6 μL, Buffer:Emerald II:Galactor-Star in a 19:5:1 ratio, i.e., 14.06 mL:3.7 mL:0.74 mL=18.5 mL) was then added to the agonist plates.

human D2R/β-arrestin [2] = molecular target: T1, human D2R/β-arrestin; assay: cell-based; details: β-arrestin Antagonist, CHO-K1 cells expressing human D2R/β-arrestin; antagonist mode, quinpirole 130 nM
human D2R/β-arrestin [3] = molecular target: T1, human D2R/β-arrestin; assay: Gi/cAMP agonist assay (Lance Ultra cAMP, forskolin); assay type: cell-based; details: CHO-K1 cells expressing human D2R/β-arrestin; agonist mode, 2.5 μM forskolin
Protocol: Eu-cAMP tracer solution (10 μl, PerkinElmer, 360 μl of Tracer in 17.64 ml kit buffer) and ULight-anti-cAMP solution (10 μl, 120 μL antibody in 17.88 ml kit buffer) was then added to each well.

human D2R/β-arrestin [4] = molecular target: T1, human D2R/β-arrestin; assay: cell-based; details: cAMP Antagonist, CHO-K1 cells expressing human D2R/β-arrestin; antagonist mode, 2.5 μM forskolin and 2.7 nM quinpirole

T1 sequence (P14416 whole entry): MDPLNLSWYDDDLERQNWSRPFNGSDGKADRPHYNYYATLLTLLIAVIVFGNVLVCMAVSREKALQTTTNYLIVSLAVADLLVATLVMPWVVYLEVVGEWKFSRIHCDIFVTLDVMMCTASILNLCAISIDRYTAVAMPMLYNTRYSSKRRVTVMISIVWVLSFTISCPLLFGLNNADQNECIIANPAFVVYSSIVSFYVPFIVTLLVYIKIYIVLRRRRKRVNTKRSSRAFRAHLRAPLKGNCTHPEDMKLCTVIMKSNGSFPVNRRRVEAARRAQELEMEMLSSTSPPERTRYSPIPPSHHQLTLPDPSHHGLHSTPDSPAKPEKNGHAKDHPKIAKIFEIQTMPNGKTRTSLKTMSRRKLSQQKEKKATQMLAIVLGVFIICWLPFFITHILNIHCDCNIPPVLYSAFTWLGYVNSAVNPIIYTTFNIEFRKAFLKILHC

| EC50 (human D2R/β-arrestin [1]) | IC50 (human D2R/β-arrestin [2]) | EC50 (human D2R/β-arrestin [3]) | IC50 (human D2R/β-arrestin [4]) | SMILES |
| --- | --- | --- | --- | --- |
| > 30 µM | 1 to 10 µM | < 0.1 µM | 0.1 to 1 µM | Cc1cccc(OCCN2CCC(C)(Oc3ccc(Cl)cc3)C2)c1 (centres unmarked) [Compound 11, 3-(4-chlorophenoxy)-3-methyl-1-(2-(m-tolyloxy)ethyl)pyrrolidine] |
| > 30 µM | 1 to 10 µM | < 0.1 µM | > 30 µM | Cc1ccccc1OC1(C)CCN(CCOc2ccccc2)C1 (centres unmarked) [Example 85, 3-Methyl-1-(2-phenoxyethyl)-3-(o-tolyloxy)pyrrolidine] |
| > 30 µM | 1 to 10 µM | > 30 µM | 1 to 10 µM | CC1(Oc2ccc(Cl)cc2)CCN(CCOc2ccc(C(C)(C)O)cc2)CC1 [Compound 155, 2-(4-(2-(4-(4-chlorophenoxy)-4-methylpiperidin-1-yl)ethoxy)phenyl)propan-2-ol] |
| 0.1 to 1 µM | 1 to 10 µM | < 0.1 µM | > 30 µM | CC1(Oc2ccc(Cl)cc2)CCN(CCOc2ccc3ncoc3c2)CC1 [Compound 127, 6-(2-(4-(4-chlorophenoxy)-4-methylpiperidin-1-yl)ethoxy)benzo[d] oxazole] |
| 1 to 10 µM | 1 to 10 µM | 1 to 10 µM | 10 to 30 µM | CC1(Cc2ccc(Cl)cc2)CCN(CCOc2ccccc2C(F)(F)F)CC1 [Compound 215, 4-(4-chlorobenzyl)-4-methyl-1-(2-(2-(trifluoromethyl)phenoxy)ethyl)piperidine] |
| > 30 µM | 1 to 10 µM | 1 to 10 µM | > 30 µM | COc1ccccc1OC1(C)CCN(CCOc2ccccc2)C1 (centres unmarked) [Example 84, 3-(2-Methoxyphenoxy)-3-methyl-1-(2-phenoxyethyl)pyrrolidine] |
| 0.1 to 1 µM | > 30 µM | < 0.1 µM | > 30 µM | CC1(Oc2ccccc2)CCN(CCOc2ccccn2)CC1 [Compound 174, 2-(2-(4-methyl-4-phenoxypiperidin-1-yl)ethoxy)pyridine] |
| 0.1 to 1 µM | < 0.1 µM | < 0.1 µM | > 30 µM | CC1(Oc2ccccc2)CCN(CCOc2cccc3[nH]ccc23)CC1 [Compound 175, 4-(2-(4-methyl-4-phenoxypiperidin-1-yl)ethoxy)-1H-indole] |
| 1 to 10 µM | > 30 µM | < 0.1 µM | > 30 µM | COc1cccc(OCCN2CCC(C)(Oc3ccc(Cl)cc3)C2)c1 (centres unmarked) [Compound 19, 3-(4-chlorophenoxy)-1-(2-(3-methoxyphenoxy)ethyl)-3-methyl pyrrolidine] |
| < 0.1 µM | < 0.1 µM | < 0.1 µM | > 30 µM | CC1(Oc2ccc(Cl)cc2)CCN(CCOc2ccccc2Cl)CC1 [Example 88, 4-(4-chlorophenoxy)-1-(2-(2-chlorophenoxy)ethyl)-4-methylpiperidine] |
| > 30 µM | 1 to 10 µM | 0.1 to 1 µM | 1 to 10 µM | FC(F)(F)c1ccccc1OCCN1CCC2(CC1)CC2c1ccccc1 (centres unmarked) [Example 102, 1-Phenyl-6-(2-(2-(trifluoromethyl)phenoxy)ethyl)-6-azaspiro[2.5]octane] |
| > 30 µM | < 0.1 µM | > 30 µM | < 0.1 µM | CNC(=O)C1(C)CCN(CCOc2ccccc2C(F)(F)F)CC1 [Compound 198, N,4-dimethyl-1-(2-(2-(trifluoromethyl)phenoxy)ethyl)piperidine-4-carboxamide] |
| 0.1 to 1 µM | 0.1 to 1 µM | 0.1 to 1 µM | > 30 µM | CC1(Oc2ccc(Cl)cc2)CCN(CCOc2ccccc2OC(F)(F)F)CC1 [Compound 146, 4-(4-chlorophenoxy)-4-methyl-1-(2-(2-(trifluoromethoxy)phenoxy)ethyl) piperidine] |
| 1 to 10 µM | > 30 µM | < 0.1 µM | > 30 µM | CC1(Oc2ccc(Cl)cc2)CCN(CCOc2cccnc2C(F)(F)F)CC1 [Compound 163, 3-(2-(4-(4-chlorophenoxy)-4-methylpiperidin-1-yl)ethoxy)-2-(trifluoromethyl)pyridine] |
| > 30 µM | 10 to 30 µM | 10 to 30 µM | 10 to 30 µM | CC1(Oc2ccc(Cl)cc2)CCN(CCOc2ccc(S(C)(=O)=O)cc2)CC1 [Compound 152, 4-(4-chlorophenoxy)-4-methyl-1-(2-(4-(methylsulfonyl)phenoxy)ethyl)piperidine] |
| > 30 µM | 1 to 10 µM | > 30 µM | 1 to 10 µM | FC1(Cc2ccccc2)CCN(CCOc2ccccc2C(F)(F)F)CC1 [Compound 115, 4-benzyl-4-fluoro-1-(2-(2-(trifluoromethyl)phenoxy)ethyl)piperidine] |

| EC50 (human D2R/β-arrestin [1]) | IC50 (human D2R/β-arrestin [2]) | EC50 (human D2R/β-arrestin [3]) | IC50 (human D2R/β-arrestin [4]) | SMILES |
| --- | --- | --- | --- | --- |
| 1 to 10 µM | 1 to 10 µM | 0.1 to 1 µM | 0.1 to 1 µM | CC1(Oc2ccc(Cl)cc2)CCN(CCOc2cn[nH]c2)CC1 [Compound 186, 1-(2-((1H-pyrazol-4-yl)oxy)ethyl)-4-(4-chlorophenoxy)-4-methylpiperidine] |
| > 30 µM | 1 to 10 µM | < 0.1 µM | > 30 µM | CC1(Oc2ccc(Cl)cc2)CCN(CCOc2cccc(F)c2)C1 (centres unmarked) [Compound 180, 3-(4-chlorophenoxy)-1-(2-(3-fluorophenoxy)ethyl)-3-methylpyrrolidine] |
| > 30 µM | 1 to 10 µM | > 30 µM | 0.1 to 1 µM | CNC(=O)C1(C)CCN(CCOc2ccccc2OC)CC1 [Compound 201, 1-(2-(2-methoxyphenoxy)ethyl)-N,4-dimethylpiperidine-4-carboxamide] |
| > 30 µM | 1 to 10 µM | 0.1 to 1 µM | > 30 µM | CC1(Oc2ccc(Cl)cc2)CCN(CCOc2ccc3ncccc3c2)C1 (centres unmarked) [Compound 32] |
| < 0.1 µM | < 0.1 µM | < 0.1 µM | > 30 µM | CC1(Oc2ccccc2)CCN(CCOc2ccccc2C#N)CC1 [Example 109, 2-(2-(4-methyl-4-phenoxypiperidin-1-yl)ethoxy)benzonitrile] |
| > 30 µM | 1 to 10 µM | > 30 µM | 0.1 to 1 µM | CC1(Oc2ccc(Cl)cc2)CCN(CCOc2ccc3cnccc3c2)C1 (centres unmarked) [Compound 33, 6-(2-(3-(4-chlorophenoxy)-3-methylpyrrolidin-1-yl)ethoxy)isoquinoline] |
| > 30 µM | > 30 µM | 1 to 10 µM | > 30 µM | CC(=O)N(C)C1(C)CCN(C[C@H]2COc3ccccc3O2)CC1 [Compound 213, (S)—N-(1-((2,3-dihydrobenzo[b][1,4]dioxin-2-yl)methyl)-4-methylpiperidin-4-yl)-N-methylacetamide] |
| > 30 µM | 0.1 to 1 µM | > 30 µM | 0.1 to 1 µM | CC1(O)CCN(CCCOc2ccccc2C(F)(F)F)CC1 [Compound 138, 4-methyl-1-(3-(2-(trifluoromethyl)phenoxy)propyl)piperidin-4-ol] |
| > 30 µM | 10 to 30 µM | < 0.1 µM | > 30 µM | COc1ccc(OCCN2CCC(C)(Oc3ccc(Cl)cc3)C2)cc1 (centres unmarked) [Compound 20, 3-(4-chlorophenoxy)-1-(2-(4-methoxyphenoxy)ethyl)-3-methyl pyrrolidine] |
| > 30 µM | 10 to 30 µM | 0.1 to 1 µM | > 30 µM | OC1(Cc2ccccc2F)CCN(CCOc2ccccc2)C1 (centres unmarked) [Compound 300, 3-(2-fluorobenzyl)-1-(2-phenoxyethyl)pyrrolidin-3-ol, reference compound] |
| > 30 µM | > 30 µM | > 30 µM | > 30 µM | CC(=O)N(CCN1CCC(C)(Oc2ccc(Cl)cc2)CC1)c1ccccc1C(F)(F)F [Compound 170, N-(2-(4-(4-chlorophenoxy)-4-methylpiperidin-1-yl)ethyl)-N-(2-(trifluoromethyl)phenyl)acetamide] |
| > 30 µM | 0.1 to 1 µM | > 30 µM | 0.1 to 1 µM | CC(C)c1ccccc1OCCN1CCC(C)(Oc2ccccc2)CC1 [Example 71, 1-(2-(2-isopropylphenoxy)ethyl)-4-methyl-4-phenoxypiperidine] |
| 1 to 10 µM | > 30 µM | 0.1 to 1 µM | > 30 µM | CC1(Oc2ccc(Cl)cc2)CCN(CCOc2ccc(C(F)(F)F)nc2)C1 (centres unmarked) [Compound 30, 5-(2-(3-(4-Chlorophenoxy)-3-methylpyrrolidin-1-yl)ethoxy)-2-(trifluoromethyl)pyridine] |
| > 30 µM | 1 to 10 µM | > 30 µM | 0.1 to 1 µM | CC1(Oc2cccc(C(F)(F)F)c2)CCCN(CCOc2ccccc2)C1 (centres unmarked) [Example 100, 3-methyl-1-(2-phenoxyethyl)-3-(3-(trifluoromethyl)phenoxy)piperidine] |
| > 30 µM | 1 to 10 µM | 0.1 to 1 µM | > 30 µM | CC1(Oc2cccc([N+](=O)[O-])c2)CCN(CCOc2ccccc2)C1 (centres unmarked) [Example 40, 3-Methyl-3-(3-nitrophenoxy)-1-(2-phenoxyethyl)pyrrolidine] |
| > 30 µM | 10 to 30 µM | < 0.1 µM | > 30 µM | CC1(Oc2ccc(Cl)cc2Cl)CCN(CCOc2ccccc2)C1 (centres unmarked) [Example 48, 3-(2,4-dichlorophenoxy)-3-methyl-1-(2-phenoxyethyl)pyrrolidine] |
